Source: article PMC5622171 (Nature Communications, 2017)

Experiments:
Experiment in all cases: KINOMEscan kinase profiling
Type in all cases: binding
[1] = molecular target: T1, IRAK3 (Homo sapiens, UniProt Q9Y616); settings: read-out: %Inhibition by 10 μM SPA70
T1 construct: purchased DiscoverX (Ambit Biosciences) KINOMEscan
Method in brief: (§1)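 KINOMEscan profiling followed a published protocol. Kinases whose inhibition exceeded a set cut-off were then tested in a dilution series beginning at 30 µM.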

[2] = molecular target: T2, AURKB (Homo sapiens, UniProt Q96GD4); settings: read-out: %Inhibition by 10 μM SPA70
T2 construct: purchased DiscoverX (Ambit Biosciences) KINOMEscan
Method in brief: as §1

[3] = molecular target: T3, MYLK (Homo sapiens, UniProt Q15746); settings: read-out: %Inhibition by 10 μM SPA70
T3 construct: purchased DiscoverX (Ambit Biosciences) KINOMEscan
Method in brief: as §1

[4] = molecular target: T4, FAK (Homo sapiens, UniProt Q05397); settings: read-out: %Inhibition by 10 μM SPA70
T4 construct: purchased DiscoverX (Ambit Biosciences) KINOMEscan
T4 sequence (Q05397 whole entry): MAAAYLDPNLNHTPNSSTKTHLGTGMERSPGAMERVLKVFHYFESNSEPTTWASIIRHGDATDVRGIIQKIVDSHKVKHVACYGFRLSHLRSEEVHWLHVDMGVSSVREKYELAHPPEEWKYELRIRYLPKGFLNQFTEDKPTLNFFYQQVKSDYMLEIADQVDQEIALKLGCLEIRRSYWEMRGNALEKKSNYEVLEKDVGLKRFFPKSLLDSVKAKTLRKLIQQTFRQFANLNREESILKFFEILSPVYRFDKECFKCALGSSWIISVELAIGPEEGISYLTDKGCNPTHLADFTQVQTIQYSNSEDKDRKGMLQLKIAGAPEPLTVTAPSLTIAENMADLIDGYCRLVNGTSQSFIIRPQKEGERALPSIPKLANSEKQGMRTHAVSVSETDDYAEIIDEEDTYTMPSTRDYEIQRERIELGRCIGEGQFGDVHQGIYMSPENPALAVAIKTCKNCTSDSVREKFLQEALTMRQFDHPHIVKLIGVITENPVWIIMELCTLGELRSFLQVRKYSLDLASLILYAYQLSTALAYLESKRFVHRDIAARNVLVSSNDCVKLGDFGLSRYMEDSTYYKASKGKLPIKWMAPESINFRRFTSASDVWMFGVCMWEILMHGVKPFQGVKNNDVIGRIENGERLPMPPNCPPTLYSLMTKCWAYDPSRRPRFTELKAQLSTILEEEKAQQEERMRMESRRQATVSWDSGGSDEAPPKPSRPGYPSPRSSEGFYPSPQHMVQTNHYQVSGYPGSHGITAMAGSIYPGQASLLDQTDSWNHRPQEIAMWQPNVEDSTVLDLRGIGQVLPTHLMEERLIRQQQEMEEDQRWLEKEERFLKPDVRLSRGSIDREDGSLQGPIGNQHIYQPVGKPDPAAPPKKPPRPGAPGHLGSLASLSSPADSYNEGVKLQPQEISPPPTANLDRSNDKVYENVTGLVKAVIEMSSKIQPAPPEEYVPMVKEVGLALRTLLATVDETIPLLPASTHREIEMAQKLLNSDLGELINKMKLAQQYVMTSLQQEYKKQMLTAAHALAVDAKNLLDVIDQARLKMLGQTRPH
Method in brief: as §1

[5] = molecular target: T5, TIE1 (Homo sapiens, UniProt P35590); settings: read-out: %Inhibition by 10 μM SPA70
T5 construct: purchased DiscoverX (Ambit Biosciences) KINOMEscan
Method in brief: as §1

[6] = molecular target: T6, EPHB3 (Homo sapiens, UniProt P54753); settings: read-out: %Inhibition by 10 μM SPA70
T6 construct: purchased DiscoverX (Ambit Biosciences) KINOMEscan
Method in brief: as §1

[7] = molecular target: T7, MAP3K15 (Homo sapiens, UniProt Q6ZN16); settings: read-out: %Inhibition by 10 μM SPA70
T7 construct: purchased DiscoverX (Ambit Biosciences) KINOMEscan
Method in brief: as §1

[8] = molecular target: T8, TYK2(JH1domain-catalytic) (Homo sapiens, UniProt P29597)
T8 construct: TYK2(JH1domain-catalytic); purchased DiscoverX (Ambit Biosciences) KINOMEscan
T8 sequence (P29597 871-1187 limits assumed): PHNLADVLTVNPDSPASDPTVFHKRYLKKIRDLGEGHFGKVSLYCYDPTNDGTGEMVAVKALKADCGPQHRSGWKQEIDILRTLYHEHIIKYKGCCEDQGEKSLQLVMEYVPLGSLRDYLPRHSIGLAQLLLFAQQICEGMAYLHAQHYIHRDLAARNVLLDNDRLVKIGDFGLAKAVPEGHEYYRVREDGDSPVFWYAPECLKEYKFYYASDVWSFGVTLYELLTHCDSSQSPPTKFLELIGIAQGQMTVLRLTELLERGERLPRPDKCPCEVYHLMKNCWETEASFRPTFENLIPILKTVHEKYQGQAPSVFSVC
Method in brief: as §1

[9] = molecular target: T9, BRSK2 (Homo sapiens, UniProt Q8IWQ3); settings: read-out: %Inhibition by 10 μM SPA70
T9 construct: purchased DiscoverX (Ambit Biosciences) KINOMEscan
Method in brief: as §1

[10] = molecular target: T10, ERN1 (Homo sapiens, UniProt O75460); settings: read-out: %Inhibition by 10 μM SPA70
T10 construct: purchased DiscoverX (Ambit Biosciences) KINOMEscan
Method in brief: as §1

[11] = molecular target: T11, LIMK2 (Homo sapiens, UniProt P53671); settings: read-out: %Inhibition by 10 μM SPA70
T11 construct: purchased DiscoverX (Ambit Biosciences) KINOMEscan
Method in brief: as §1

[12] = molecular target: T12, STK35 (Homo sapiens, UniProt Q8TDR2); settings: read-out: %Inhibition by 10 μM SPA70
T12 construct: purchased DiscoverX (Ambit Biosciences) KINOMEscan
T12 sequence (Q8TDR2 whole entry): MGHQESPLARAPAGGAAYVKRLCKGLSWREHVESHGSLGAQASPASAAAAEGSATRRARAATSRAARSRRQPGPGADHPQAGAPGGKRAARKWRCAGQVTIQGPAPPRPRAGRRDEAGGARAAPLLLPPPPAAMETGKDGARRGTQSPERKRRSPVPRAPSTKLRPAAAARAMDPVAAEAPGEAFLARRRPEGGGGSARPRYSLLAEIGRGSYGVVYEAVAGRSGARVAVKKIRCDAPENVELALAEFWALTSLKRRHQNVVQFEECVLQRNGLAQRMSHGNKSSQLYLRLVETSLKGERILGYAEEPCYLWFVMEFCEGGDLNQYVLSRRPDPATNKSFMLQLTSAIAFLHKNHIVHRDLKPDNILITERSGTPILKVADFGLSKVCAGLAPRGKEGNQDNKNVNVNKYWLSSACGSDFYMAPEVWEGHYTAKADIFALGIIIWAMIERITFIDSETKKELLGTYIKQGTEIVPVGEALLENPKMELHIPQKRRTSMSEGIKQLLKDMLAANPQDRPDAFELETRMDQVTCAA
Method in brief: as §1

[13] = molecular target: T13, EPHB1 (Homo sapiens, UniProt P54762); settings: read-out: %Inhibition by 10 μM SPA70
T13 construct: purchased DiscoverX (Ambit Biosciences) KINOMEscan
Method in brief: as §1

[14] = molecular target: T14, TGFBR1 (Homo sapiens, UniProt P36897); settings: read-out: %Inhibition by 10 μM SPA70
T14 construct: purchased DiscoverX (Ambit Biosciences) KINOMEscan
Method in brief: as §1

[15] = molecular target: T15, NEK9 (Homo sapiens, UniProt Q8TD19); settings: read-out: %Inhibition by 10 μM SPA70
T15 construct: purchased DiscoverX (Ambit Biosciences) KINOMEscan
Method in brief: as §1

[16] = molecular target: T16, PRKCH (Homo sapiens, UniProt P24723); settings: read-out: %Inhibition by 10 μM SPA70
T16 construct: purchased DiscoverX (Ambit Biosciences) KINOMEscan
T16 sequence (P24723 whole entry): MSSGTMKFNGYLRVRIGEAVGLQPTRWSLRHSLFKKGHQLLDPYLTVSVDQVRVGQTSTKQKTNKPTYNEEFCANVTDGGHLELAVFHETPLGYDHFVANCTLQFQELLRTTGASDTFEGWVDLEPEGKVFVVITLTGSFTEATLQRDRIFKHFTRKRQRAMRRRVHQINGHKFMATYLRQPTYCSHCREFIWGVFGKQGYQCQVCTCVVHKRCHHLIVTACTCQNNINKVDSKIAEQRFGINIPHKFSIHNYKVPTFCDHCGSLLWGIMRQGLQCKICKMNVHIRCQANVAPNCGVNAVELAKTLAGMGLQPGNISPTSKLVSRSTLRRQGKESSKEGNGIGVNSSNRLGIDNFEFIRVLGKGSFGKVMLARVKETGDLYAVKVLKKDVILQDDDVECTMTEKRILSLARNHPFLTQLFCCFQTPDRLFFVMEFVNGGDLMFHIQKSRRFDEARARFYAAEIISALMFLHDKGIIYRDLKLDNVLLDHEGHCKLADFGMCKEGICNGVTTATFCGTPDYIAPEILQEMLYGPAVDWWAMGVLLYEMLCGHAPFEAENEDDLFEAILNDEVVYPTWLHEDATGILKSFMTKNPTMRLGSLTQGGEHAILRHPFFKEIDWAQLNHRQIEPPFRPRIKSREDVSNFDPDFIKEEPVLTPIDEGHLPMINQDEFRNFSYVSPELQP
Method in brief: as §1

[17] = molecular target: T17, MAP4K3 (Homo sapiens, UniProt Q8IVH8)
T17 construct: purchased DiscoverX (Ambit Biosciences) KINOMEscan
Method in brief: as §1

[18] = molecular target: T18, ERBB3 (Homo sapiens, UniProt P21860); settings: read-out: %Inhibition by 10 μM SPA70
T18 construct: purchased DiscoverX (Ambit Biosciences) KINOMEscan
Method in brief: as §1

[19] = molecular target: T19, PKN2 (Homo sapiens, UniProt Q16513); settings: read-out: %Inhibition by 10 μM SPA70
T19 construct: purchased DiscoverX (Ambit Biosciences) KINOMEscan
Method in brief: as §1

[20] = molecular target: T20, CDK4-cyclinD3 (Homo sapiens, UniProt P11802); settings: read-out: %Inhibition by 10 μM SPA70
T20 construct: purchased DiscoverX (Ambit Biosciences) KINOMEscan
Method in brief: as §1

[21] = molecular target: T21, CLK3 (Homo sapiens, UniProt P49761); settings: read-out: %Inhibition by 10 μM SPA70
T21 construct: purchased DiscoverX (Ambit Biosciences) KINOMEscan
Method in brief: as §1

[22] = molecular target: T22, PAK4 (Homo sapiens, UniProt O96013); settings: read-out: %Inhibition by 10 μM SPA70
T22 construct: purchased DiscoverX (Ambit Biosciences) KINOMEscan
Method in brief: as §1

[23] = molecular target: T23, MEK4 (Homo sapiens, UniProt P45985); settings: read-out: %Inhibition by 10 μM SPA70
T23 construct: purchased DiscoverX (Ambit Biosciences) KINOMEscan
Method in brief: as §1

[24] = molecular target: T24, FER (Homo sapiens, UniProt P16591); settings: read-out: %Inhibition by 10 μM SPA70
T24 construct: purchased DiscoverX (Ambit Biosciences) KINOMEscan
Method in brief: as §1

[25] = molecular target: T25, MEK6 (Homo sapiens, UniProt P52564); settings: read-out: %Inhibition by 10 μM SPA70
T25 construct: purchased DiscoverX (Ambit Biosciences) KINOMEscan
T25 sequence (P52564 whole entry): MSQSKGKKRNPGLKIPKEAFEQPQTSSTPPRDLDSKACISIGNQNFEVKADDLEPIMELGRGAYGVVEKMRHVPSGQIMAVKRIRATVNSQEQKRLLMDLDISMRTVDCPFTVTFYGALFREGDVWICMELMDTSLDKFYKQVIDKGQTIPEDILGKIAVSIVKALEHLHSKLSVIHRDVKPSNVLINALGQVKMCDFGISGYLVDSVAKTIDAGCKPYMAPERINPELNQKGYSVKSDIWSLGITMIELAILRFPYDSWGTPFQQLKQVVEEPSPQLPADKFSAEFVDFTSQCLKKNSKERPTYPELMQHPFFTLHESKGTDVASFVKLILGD
Method in brief: as §1

[26] = molecular target: T26, p38-delta (Homo sapiens, UniProt O15264); settings: read-out: %Inhibition by 10 μM SPA70
T26 construct: purchased DiscoverX (Ambit Biosciences) KINOMEscan
Method in brief: as §1

[27] = molecular target: T27, MINK (Homo sapiens, UniProt Q8N4C8); settings: read-out: %Inhibition by 10 μM SPA70
T27 construct: purchased DiscoverX (Ambit Biosciences) KINOMEscan
Method in brief: as §1

[28] = molecular target: T28, FYN (Homo sapiens, UniProt P06241); settings: read-out: %Inhibition by 10 μM SPA70
T28 construct: purchased DiscoverX (Ambit Biosciences) KINOMEscan
Method in brief: as §1

[29] = molecular target: T29, NDR2 (Homo sapiens, UniProt Q9Y2H1); settings: read-out: %Inhibition by 10 μM SPA70
T29 construct: purchased DiscoverX (Ambit Biosciences) KINOMEscan
Method in brief: as §1

[30] = molecular target: T30, WEE2 (Homo sapiens, UniProt P0C1S8); settings: read-out: %Inhibition by 10 μM SPA70
T30 construct: purchased DiscoverX (Ambit Biosciences) KINOMEscan
Method in brief: as §1

[31] = molecular target: T31, ACVR1B (Homo sapiens, UniProt P36896); settings: read-out: %Inhibition by 10 μM SPA70
T31 construct: purchased DiscoverX (Ambit Biosciences) KINOMEscan
Method in brief: as §1

[32] = molecular target: T32, NEK3 (Homo sapiens, UniProt P51956); settings: read-out: %Inhibition by 10 μM SPA70
T32 construct: purchased DiscoverX (Ambit Biosciences) KINOMEscan
Method in brief: as §1

[33] = molecular target: T33, PLK4 (Homo sapiens, UniProt O00444); settings: read-out: %Inhibition by 10 μM SPA70
T33 construct: purchased DiscoverX (Ambit Biosciences) KINOMEscan
Method in brief: as §1

[34] = molecular target: T34, MAP4K5 (Homo sapiens, UniProt Q9Y4K4); settings: read-out: %Inhibition by 10 μM SPA70
T34 construct: purchased DiscoverX (Ambit Biosciences) KINOMEscan
T34 sequence (Q9Y4K4 whole entry): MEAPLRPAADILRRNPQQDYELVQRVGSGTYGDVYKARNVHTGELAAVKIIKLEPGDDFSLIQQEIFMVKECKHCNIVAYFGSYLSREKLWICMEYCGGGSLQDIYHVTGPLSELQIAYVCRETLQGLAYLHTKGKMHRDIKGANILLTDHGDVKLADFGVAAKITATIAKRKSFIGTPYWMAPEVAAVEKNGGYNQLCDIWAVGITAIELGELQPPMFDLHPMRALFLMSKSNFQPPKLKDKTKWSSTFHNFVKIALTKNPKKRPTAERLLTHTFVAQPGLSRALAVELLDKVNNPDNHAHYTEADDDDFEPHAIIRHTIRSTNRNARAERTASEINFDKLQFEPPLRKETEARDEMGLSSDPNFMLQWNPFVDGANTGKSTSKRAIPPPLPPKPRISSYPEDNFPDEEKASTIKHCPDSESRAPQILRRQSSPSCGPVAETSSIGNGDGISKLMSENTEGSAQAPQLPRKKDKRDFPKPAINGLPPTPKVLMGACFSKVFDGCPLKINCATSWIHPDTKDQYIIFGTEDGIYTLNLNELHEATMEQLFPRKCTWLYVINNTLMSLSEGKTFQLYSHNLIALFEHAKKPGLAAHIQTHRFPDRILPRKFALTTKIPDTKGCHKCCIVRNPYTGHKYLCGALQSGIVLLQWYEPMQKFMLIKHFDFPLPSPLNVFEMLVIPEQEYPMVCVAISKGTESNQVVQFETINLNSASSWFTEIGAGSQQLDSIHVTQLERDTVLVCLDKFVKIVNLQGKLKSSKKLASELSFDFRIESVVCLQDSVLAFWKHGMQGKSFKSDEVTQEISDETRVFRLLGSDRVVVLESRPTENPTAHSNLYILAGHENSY
Method in brief: as §1

[35] = molecular target: T35, ACVR1 (Homo sapiens, UniProt Q04771); settings: read-out: %Inhibition by 10 μM SPA70
T35 construct: purchased DiscoverX (Ambit Biosciences) KINOMEscan
Method in brief: as §1

[36] = molecular target: T36, PIK3CG (Homo sapiens, UniProt P48736); settings: read-out: %Inhibition by 10 μM SPA70
T36 construct: purchased DiscoverX (Ambit Biosciences) KINOMEscan
Method in brief: as §1

[37] = molecular target: T37, MLK3 (Homo sapiens, UniProt Q16584)
T37 construct: purchased DiscoverX (Ambit Biosciences) KINOMEscan
Method in brief: as §1

[38] = molecular target: T38, RPS6KA4(Kin.Dom.1-N-terminal) (Homo sapiens, UniProt O75676); settings: read-out: %Inhibition by 10 μM SPA70
T38 construct: RPS6KA4(Kin.Dom.1-N-terminal); purchased DiscoverX (Ambit Biosciences) KINOMEscan
Method in brief: as §1

[39] = molecular target: T39, EGFR (Homo sapiens, UniProt P00533)
T39 construct: purchased DiscoverX (Ambit Biosciences) KINOMEscan
T39 sequence (P00533 25-1210): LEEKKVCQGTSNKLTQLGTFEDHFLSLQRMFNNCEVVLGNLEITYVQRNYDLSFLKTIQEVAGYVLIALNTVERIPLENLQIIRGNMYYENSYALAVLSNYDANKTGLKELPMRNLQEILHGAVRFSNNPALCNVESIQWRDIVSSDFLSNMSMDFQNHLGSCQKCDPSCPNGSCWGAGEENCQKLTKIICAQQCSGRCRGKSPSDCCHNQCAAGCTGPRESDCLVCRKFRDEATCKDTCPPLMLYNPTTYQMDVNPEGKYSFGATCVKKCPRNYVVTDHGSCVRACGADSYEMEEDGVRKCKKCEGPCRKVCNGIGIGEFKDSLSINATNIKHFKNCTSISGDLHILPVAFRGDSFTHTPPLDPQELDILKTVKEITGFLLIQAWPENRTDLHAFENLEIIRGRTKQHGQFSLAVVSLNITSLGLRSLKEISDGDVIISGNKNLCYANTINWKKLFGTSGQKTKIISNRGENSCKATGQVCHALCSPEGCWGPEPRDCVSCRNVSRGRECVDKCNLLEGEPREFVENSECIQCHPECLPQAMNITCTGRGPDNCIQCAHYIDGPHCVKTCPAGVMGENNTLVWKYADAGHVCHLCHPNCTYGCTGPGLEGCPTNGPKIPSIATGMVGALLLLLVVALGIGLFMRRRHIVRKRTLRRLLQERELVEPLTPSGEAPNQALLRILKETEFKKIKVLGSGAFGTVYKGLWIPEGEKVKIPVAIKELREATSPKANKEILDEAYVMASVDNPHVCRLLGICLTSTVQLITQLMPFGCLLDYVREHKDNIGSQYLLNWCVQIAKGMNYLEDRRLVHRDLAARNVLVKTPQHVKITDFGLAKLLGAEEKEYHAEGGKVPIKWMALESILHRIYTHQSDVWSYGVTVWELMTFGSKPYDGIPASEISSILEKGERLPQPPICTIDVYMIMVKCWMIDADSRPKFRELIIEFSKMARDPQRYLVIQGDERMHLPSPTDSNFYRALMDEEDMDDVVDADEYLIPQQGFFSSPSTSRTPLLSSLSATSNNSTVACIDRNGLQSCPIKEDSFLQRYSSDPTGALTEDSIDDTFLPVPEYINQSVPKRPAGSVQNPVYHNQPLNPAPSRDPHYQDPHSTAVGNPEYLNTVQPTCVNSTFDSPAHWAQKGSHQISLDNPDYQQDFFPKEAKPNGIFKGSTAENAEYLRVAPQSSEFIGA
Method in brief: as §1

[40] = molecular target: T40, HIPK2 (Homo sapiens, UniProt Q9H2X6); settings: read-out: %Inhibition by 10 μM SPA70
T40 construct: purchased DiscoverX (Ambit Biosciences) KINOMEscan
Method in brief: as §1

[41] = molecular target: T41, RSK2(Kin.Dom.1-N-terminal) (Homo sapiens, UniProt P51812); settings: read-out: %Inhibition by 10 μM SPA70
T41 construct: RSK2(Kin.Dom.1-N-terminal); purchased DiscoverX (Ambit Biosciences) KINOMEscan
Method in brief: as §1

COc1ccc(OC)c(-n2nnc(S(=O)(=O)c3ccc(C(C)(C)C)cc3)c2C)c1 [SPA70]
inhibition at 10 µM [1]: 15% | inhibition at 10 µM [2]: 8% | inhibition at 10 µM [3]: 0% | inhibition at 10 µM [4]: 6% | inhibition at 10 µM [5]: 0% | inhibition at 10 µM [6]: 0% | inhibition at 10 µM [7]: 0% | %Inhibition by 10 μM SPA70 [8]: 0% | inhibition at 10 µM [9]: 0% | inhibition at 10 µM [10]: 0% | inhibition at 10 µM [11]: 2% | inhibition at 10 µM [12]: 0% | inhibition at 10 µM [13]: 0% | inhibition at 10 µM [14]: 20% | inhibition at 10 µM [15]: 0% | inhibition at 10 µM [16]: 13% | %Inhibition by 10 μM SPA70 [17]: 0% | inhibition at 10 µM [18]: 42% | inhibition at 10 µM [19]: 0% | inhibition at 10 µM [20]: 19% | inhibition at 10 µM [21]: 0% | inhibition at 10 µM [22]: 0% | inhibition at 10 µM [23]: 0% | inhibition at 10 µM [24]: 19% | inhibition at 10 µM [25]: 0% | inhibition at 10 µM [26]: 21% | inhibition at 10 µM [27]: 0% | inhibition at 10 µM [28]: 0% | inhibition at 10 µM [29]: 0% | inhibition at 10 µM [30]: 1% | inhibition at 10 µM [31]: 0% | inhibition at 10 µM [32]: 0% | inhibition at 10 µM [33]: 9% | inhibition at 10 µM [34]: 0% | inhibition at 10 µM [35]: 0% | inhibition at 10 µM [36]: 9% | %Inhibition by 10 μM SPA70 [37]: 18% | inhibition at 10 µM [38]: 0% | %Inhibition by 10 μM SPA70 [39]: 0% | inhibition at 10 µM [40]: 36% | inhibition at 10 µM [41]: 11%
